Reference: patent EP4371976B1, “IONIZABLE LIPIDS AND LIPID NANOPARTICLES CONTAINING THEREOF” (Certest Biotec, S.L., priority 2022, dated 2024)

Legend:
[1] = test system: Female BALB/c mice; experiment: Firefly luciferase expression (total flux, IVIS imaging) in mice after injection of mRNA-loaded LNPs; assay type: in vivo
Procedure: For in vivo administration, mRNA comprising in the 5' to 3' direction a sequence encoding for luciferase of SEQ ID NO:1, was encapsulated into LNPs following the procedure described in Hassett, K. J. et al., "Optimization of Lipid Nanoparticles for Intramuscular Administration of mRNA Vaccines", 2019, Mol. Ther. Nucleic Acid, vol. 15, pp. 1-11. Briefly, the purified mRNAs were first diluted in sodium citrate buffer at pH=4 at a final concentration of 266 µg/ml. Separately, a mixture of the ionizable lipid of the invention:DSPC (Merk 850365P):cholesterol (Sigma C3045):DMG-PEG2000 (Cayman 33945-1) were dissolved into ethanol at the respective molar percentages of 50:10:38.5:1.5, and with a lipid-nitrogen-to-phosphate ratio (N:P) ratio of 5,5:1.
The mRNA aqueous solution was then carefully added to the ethanol solution, and the resulted solution was homogenized by pipetting up and down for 4-5 times. The resulting LNPs were immediately diluted 1:1 with Tris buffer and dialyzed overnight against Tris buffer containing 15% sucrose. The resulting LNP solution was then collected, and the encapsulated mRNA was assessed by Quant-IT® Ribogreen (Invitrogen R11490) following the manufacturer's instructions.
Female BALB/c mice (Charles River Laboratories), 8-10-week-old, weighting 18-23 g, were acclimatized to new conditions upon arrival to experimental facilities for 3-7 days. Housing conditions were room temperature 20-24 °C, humidity 50-70 %, and light intensity 60 lux with a light-dark cycle of 12 hours.
For Firefly Luciferase activity measurement in mice, LNPs produced as indicated above (ionizable lipid:helper lipid: sterol:PEG-modified lipid → 50:10:38.5:1.5) and containing 5 µg of the indicated mRNA in 50 µl final volume, were injected intramuscularly.
From 4 to 72 hours after RNA-LPN inoculation mice were anaesthetized by inhalation with 4% of isoflurane using a vaporizer. The maintenance of the anaesthesia was performed at 1.5% of isoflurane. Then, D-luciferin (Quimigen, 12507) was injected intraperitoneally at 150 mg/kg, normally ~200 µL of the stock at 15 mg/mL in PBS for a 20 g mouse. Luciferase images were acquired 10 minutes after luciferin inoculation using the IVIS Lumina XRMS Imaging System following manufacturer's instructions.

[2] = RNA encapsulation efficiency of LNPs by Quant-IT Ribogreen; assay type: physicochemical; conditions: for Encaps. efficiency (%): LNPs with luciferase mRNA, ionizable lipid:non-cationic lipid:sterol:PEG-modified lipid 50:10:38.5:1.5, percentage of RNA entrapped in the LNP; for Encaps. efficiency: Table 8, LNP 50:10:38.5:1.5, luciferase mRNA
Summary of the method: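 Ribogreen dye assay per manufacturer quantified encapsulated mRNA. Particles were made by adding mRNA in water to the ethanol phase, then 1:1 Tris dilution and overnight dialysis into Tris/15% sucrose; final mRNA set to 100 µg/ml.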

[3] = Size distribution, polydispersity and Z-potential of LNPs by dynamic light scattering (Malvern Zetasizer); assay type: physicochemical; conditions: LNPs, standard formulation 50:10:38.5:1.5; DLS
Procedure: The LNP solution was then adjusted to a final concentration of mRNA of 100 µg/ml. Size distribution, polydispersity and Z-potential were measured by dynamic light scattering (DLS) using Malvern Zetasizer Advance Lab Blue Label. RNA encapsulation was assessed by Quant-IT® Ribogreen following the manufacturer's instructions.

[4] = Apparent pKa of LNPs comprising the ionizable lipid (Table 6); conditions: standard formulation 50:10:38.5:1.5
[5] = Table 8, mice, intramuscular, 5 µg luciferase mRNA in 50 µl, LNP 50:10:38.5:1.5
[6] = Table 9, comparative disulfide compounds, tested in vivo

Structure (SMILES)	Total Flux [1, 5]	Encaps. efficiency (%) [2]	Encaps. efficiency [2]	P.D.I. [3]	Particle size/ Ø (nm) [3]	Z Potential (± D.E.) [mV] [3]	Total Flux [1, 6]	Apparent pKa [4]	transfection (luminescence) in vivo ([1]; Figure 2, intramuscular injection, LNP 50:10:38.5:1.5 encapsulating luciferase mRNA)	Total Flux ([1]; Table 7A-C, mice, intramuscular, 5 µg luciferase mRNA in 50 µl, LNP ionizable lipid:helper lipid:sterol:PEG-modified lipid 50:10:38.5:1.5)
CCCCCCCCCCCCC(CCCCCCCCCC)COC(=O)CCSCCC(NC(=O)C(CCCCCCCC)CCCCCCCCCC)C(=O)NCC1CCN(C)CC1 (stereo not drawn) [VC-LC-0521]	1.1E+08 p·s^-1	52.01%	52.01%	0.071	153.1 nm	-4.50 mV	–	–	–	–
CCCCCCCCCCCCCCCCCCOC(=O)CCSCCC(NC(=O)C(CCCCCC)CCCCCCCC)C(=O)NCCCn1ccnc1 (stereo not drawn) [VC-LC-0262]	7.5E+07 p·s^-1	33.79%	33.79%	0.11	143.8 nm	-10.53 mV	–	–	–	–
CCCCCCCCC(CCCCCC)C(=O)NC(CCSSCCC(NC(=O)C(CCCCCC)CCCCCCCC)C(=O)NCCCN(CCO)CCO)C(=O)NCCCN(CCO)CCO (stereo not drawn) [VC-LC-0237]	–	–	–	–	–	–	3.16E+05 p·s^-1	–	–	–
CCCCCCCCC(CCCCCC)C(=O)NC(CCSSCCC(NC(=O)C(CCCCCC)CCCCCCCC)C(=O)NCCCN(C)C)C(=O)NCCCN(C)C (stereo not drawn) [VC-LC-0230]	–	–	–	–	–	–	4.47E+05 p·s^-1	–	–	–
CCCCCCCCC(CCCCCC)C(=O)NC(CCSCCC(=O)OCCCCCCCC(C)C)C(=O)NCCN(CC)CC (stereo not drawn) [VC-LC-0475]	–	52.31%	–	0.13	135 nm	-4.72 mV	–	6.59	–	–
CCCCCCCCC(CCCCCCCC)OC(=O)C(CSCCC(=O)OCCCCCCCC(C)C)CC(=O)NCCCN1CCOCC1 (stereo not drawn) [VC-LC-0542]	–	33.76%	–	0.14	156.3 nm	-10.60 mV	–	6.43	–	–
CCCCCCCCOC(=O)CCSCC(CC(=O)NC1CCN(C)CC1)C(=O)OCC(CCCCCC)CCCCCCCC (stereo not drawn) [VC-LC-0535]	–	96.61%	–	0.11	144.7 nm	4.45 mV	–	7.87	–	–
CCCCCCCCCCCCCCCCOC(=O)CCSCCC(NC(=O)C(CCCCCC)CCCCCCCC)C(=O)NCCN(CC)CC (stereo not drawn) [VC-LC-0480]	–	73.32%	–	0.2	154.5 nm	-6.33 mV	–	6.37	–	–
CCCCCCCCCCCCC(CCCCCCCCCC)COC(=O)CCSCCC(NC(=O)C(CCCCCC)CCCCCCCC)C(=O)NCCN1CCOCC1 (stereo not drawn) [VC-LC-0407]	–	60.22%	–	0.1	167.1 nm	-12.36 mV	–	4.66	–	–
CCCCCCCCCCCCCCCCOC(=O)CCSCCC(NC(=O)C(CCCCCC)CCCCCCCC)C(=O)NCCCN1CCCC1 (stereo not drawn) [VC-LC-0248]	–	89.76%	–	0.35	248 nm	4.52 mV	–	7.24	–	–
CCCCCCCCCCCCCCOC(=O)CCSCCC(NC(=O)C(CCCCCC)CCCCCCCC)C(=O)NCCN(CC)CC (stereo not drawn) [VC-LC-0478]	–	65.16%	–	0.17	156.2 nm	-7.01 mV	–	6.82	–	–
CCCCCCCCCCC(CCCCCCCC)C(=O)NC(CCSCCC(=O)OCCCCCC)C(=O)NCC1CCN(C)CC1 (stereo not drawn) [VC-LC-0518]	–	97.70%	–	0.17	149.1 nm	3.90 mV	–	6.67	–	–
CCCCCCCCC(CCCCCC)COC(=O)CCSCCC(NC(=O)C(CCCCCC)CCCCCCCC)C(=O)NCCN(CC)CC (stereo not drawn) [VC-LC-0474]	–	66.27%	–	0.21	153.2 nm	-7.69 mV	–	5.61	–	–
CCCCCCCCCCC(CCCCCCCC)C(=O)NC(CCSCCC(=O)OCCCCCCCC)C(=O)NCC1CCN(C)CC1 (stereo not drawn) [VC-LC-0519]	–	97.15%	–	0.16	137.9 nm	-1.93 mV	–	6.69	–	–
CCCC#CCCOC(=O)CCSCCC(NC(=O)C(CCCCCC)CCCCCCCC)C(=O)NC1CCN(C)CC1 (stereo not drawn) [VC-LC-0432]	–	46.27%	–	0.29	126.9 nm	-16.42 mV	–	6.44	–	–
CCCCCCCC/C=C\CCCCCCCCOC(=O)CCSCCC(NC(=O)C(CCCCCC)CCCCCCCC)C(=O)NCCCN1CCOCC1 (stereo not drawn) [VC-LC-0361]	–	41.05%	–	0.18	169.3 nm	-12.18 mV	–	5.29	–	–
CCCCCCCCCCC(CCCCCCCC)C(=O)NC(CCSCCC(=O)OCCCCCCCC(C)C)C(=O)NCC1CCN(C)CC1 (stereo not drawn) [VC-LC-0509]	–	98.62%	–	0.23	170.1 nm	0.25 mV	–	7.60	–	–
CCCCCCCCC(CCCCCC)C(=O)NC(CCSSCCC(NC(=O)C(CCCCCC)CCCCCCCC)C(=O)NCCN1CCN(C)CC1)C(=O)NCCN1CCN(C)CC1 (stereo not drawn) [VC-LC-0236]	–	–	–	–	–	–	5.20E+05 p·s^-1	–	no transfection	–
CCCCCCCC#CCOC(=O)CCSCCC(NC(=O)C(CCCCCC)CCCCCCCC)C(=O)NCCN1CCOCC1 (stereo not drawn) [VC-LC-0408]	–	41.23%	–	0.25	168.1 nm	-15.07 mV	–	4.83	–	–
CCCCCCCC#CCOC(=O)CCSCCC(NC(=O)C(CCCCCC)CCCCCCCC)C(=O)NC1CCN(C)CC1 (stereo not drawn) [VC-LC-0429]	–	46.96%	–	0.14	155.6 nm	-12.49 mV	–	6.48	–	–
CCCCCCCCCCCCCCCCOC(=O)CCSCCC(C(=O)NC1CCN(C)CC1)C(=O)OC(CCCCCCCC)CCCCCCCC (stereo not drawn) [VC-LC-0445]	–	48.02%	–	–	–	-10.64 mV	–	5.82	–	–
CCCCCCC#CCCOC(=O)CCSCC(CC(=O)NCCCN1CCOCC1)C(=O)OC(CCCCCCCC)CCCCCCCC (stereo not drawn)	–	–	–	–	–	–	–	–	–	Total flux: 1,4E+08 p·s^-1
CCCCCCCC#CCOC(=O)CCSCCC(NC(=O)CCCCCCCCCCCCCCCCC)C(=O)NCCCN1CCOCC1 (stereo not drawn) [VC-LC-0390]	–	83.80%	–	0.24	192.8 nm	-1.14 mV	–	6.10	–	–
CCCCCCCCCCCCCCCCCC(=O)NC(CCSCCC(=O)OCCCCCCCCCCCC)C(=O)NC1CCN(C)CC1 (stereo not drawn) [VC-LC-0434]	–	99.09%	–	0.2483	214.6 nm	1.34 mV	–	5.72	–	–
CCCCCCCC/C=C\CCCCCCCCOC(=O)CCSCCC(NC(=O)C(CCCCCCCC)CCCCCCCCCC)C(=O)NCCCN1CCOCC1 (stereo not drawn) [VC-LC-0587]	–	38.50%	–	0.12	150.3 nm	-6.62 mV	–	5.54	–	–
CCCCCCCCCCCCCOC(=O)CCSCCC(NC(=O)C(CCCCCC)CCCCCCCC)C(=O)NCCN1CCOCC1 (stereo not drawn) [VC-LC-0392]	–	40.58%	–	0.19	136.1 nm	-11.14 mV	–	4.72	–	–
CCCCCCCCC(CCCCCCCC)OC(=O)C(CCSCCC(=O)OCCCCCCCC(C)C)C(=O)NCCCn1ccnc1 (stereo not drawn) [VC-LC-0364]	–	78.29%	–	0.13	116.8 nm	-14.33 mV	–	6.38	–	–
